The subject of the assay is MV-4-11 cells. Put plainly: Gene expression microarray analysis (Affymetrix PrimeView) and GSEA. The assay is classed as cell-based, human. To be noted: MV-4-11 cells, 48 hours. On the set-up: RFU PODN (11730768_x_at) / Fold change /veh PODN (11730768_x_at) / RFU LINC00158 (11744669_a_at) / Fold change /veh LINC00158 (11744669_a_at) / RFU DUSP10 (11751237_a_at) / Fold change /veh DUSP10 (11751237_a_at) / RFU ID3 (11757404_x_at) / Fold change /veh ID3 (11757404_x_at) / RFU PLEKHG5 (11737974_s_at) / Fold change /veh PLEKHG5 (11737974_s_at) / RFU LRRC4B (11730491_at) / Fold change /veh LRRC4B (11730491_at) / RFU GIMAP4 (11747438_a_at) / Fold change /veh GIMAP4 (11747438_a_at) / RFU KRT8 (11758183_x_at) / Fold change /veh KRT8 (11758183_x_at) / RFU CNN1 (11734310_a_at) / Fold change /veh CNN1 (11734310_a_at) / RFU VPS37D (11726825_at) / Fold change /veh VPS37D (11726825_at) / RFU C10orf10 (11716522_x_at) / Fold change /veh C10orf10 (11716522_x_at) / RFU KIR2DL2 /// KIR2DL4 /// KIR2DL5A /// KIR2DL5B /// KIR2DS1 /// KIR2DS2 /// KIR2DS3 /// KIR2DS4 /// KIR3DL3 /// KIR3DL3 /// KIR3DS1 (11738374_at) / Fold change /veh KIR2DL2 /// KIR2DL4 /// KIR2DL5A /// KIR2DL5B /// KIR2DS1 /// KIR2DS2 /// KIR2DS3 /// KIR2DS4 /// KIR3DL3 /// KIR3DL3 /// KIR3DS1 (11738374_at) / RFU C1QL1 (11718748_at) / Fold change /veh C1QL1 (11718748_at) / RFU TMPRSS4 (11747572_a_at) / Fold change /veh TMPRSS4 (11747572_a_at) / RFU HAMP (11756126_x_at) / Fold change /veh HAMP (11756126_x_at) / RFU RNFT2 (11725882_a_at) / Fold change /veh RNFT2 (11725882_a_at) / RFU NR4A2 (11747474_a_at) / Fold change /veh NR4A2 (11747474_a_at) / RFU ABCC12 (11746883_a_at) / Fold change /veh ABCC12 (11746883_a_at) / RFU TMEM136 (11760407_x_at) / Fold change /veh TMEM136 (11760407_x_at) / RFU CLDN22 /// WWC2 (11732394_at) / Fold change /veh CLDN22 /// WWC2 (11732394_at) / RFU HLA-DPB1 (11760878_x_at) / Fold change /veh HLA-DPB1 (11760878_x_at) / RFU SPINT1 (11716480_a_at) / Fold change /veh SPINT1 (11716480_a_at) / RFU GAP43 (11754022_s_at) / Fold change /veh GAP43 (11754022_s_at) / RFU A4GNT (11735810_at) / Fold change /veh A4GNT (11735810_at) / RFU PRB3 (11715151_x_at) / Fold change /veh PRB3 (11715151_x_at) / RFU TUBB4B (11761932_at) / Fold change /veh TUBB4B (11761932_at) / RFU CAPN14 (11732068_a_at) / Fold change /veh CAPN14 (11732068_a_at) / RFU TMCC2 (11721928_a_at) / Fold change /veh TMCC2 (11721928_a_at) / RFU IRGQ (11745062_a_at) / Fold change /veh IRGQ (11745062_a_at) / RFU FAM174B (11720279_a_at) / Fold change /veh FAM174B (11720279_a_at) / RFU TMPRSS4 (11748680_a_at) / Fold change /veh TMPRSS4 (11748680_a_at) / RFU FAM212B (11763350_a_at) / Fold change /veh FAM212B (11763350_a_at) / RFU PLEKHG5 (11743358_a_at) / Fold change /veh PLEKHG5 (11743358_a_at) / RFU ZSCAN30 (11745921_a_at) / Fold change /veh ZSCAN30 (11745921_a_at) / RFU CMKLR1 (11741424_a_at) / Fold change /veh CMKLR1 (11741424_a_at) / RFU LOC101060620 /// MAPK8IP1 (11723275_at) / Fold change /veh LOC101060620 /// MAPK8IP1 (11723275_at) / RFU SPTSSB (11747773_x_at) / Fold change /veh SPTSSB (11747773_x_at) / RFU PRSS12 (11739890_at) / Fold change /veh PRSS12 (11739890_at) / RFU BIN1 (11741810_x_at) / Fold change /veh BIN1 (11741810_x_at) / RFU WNT11 (11732464_a_at) / Fold change /veh WNT11 (11732464_a_at) / RFU C10orf10 (11716521_a_at) / Fold change /veh C10orf10 (11716521_a_at) / RFU C5orf56 (11738089_at) / Fold change /veh C5orf56 (11738089_at) / RFU CYB561 (11721691_x_at) / Fold change /veh CYB561 (11721691_x_at) / RFU ANKRD19P (11752326_a_at) / Fold change /veh ANKRD19P (11752326_a_at) / RFU OR2T12 /// OR2T33 /// OR2T8 (11738714_s_at) / Fold change /veh OR2T12 /// OR2T33 /// OR2T8 (11738714_s_at) / RFU VCAN (11748164_a_at) / Fold change /veh VCAN (11748164_a_at) / RFU JSRP1 (11732532_at) / Fold change /veh JSRP1 (11732532_at) / RFU KRTAP10-11 (11738290_x_at) / Fold change /veh KRTAP10-11 (11738290_x_at) / RFU MYO3A (11730013_a_at) / Fold change /veh MYO3A (11730013_a_at) / RFU EBF3 (11725865_a_at) / Fold change /veh EBF3 (11725865_a_at) / RFU CAMK2N1 (11719241_x_at) / Fold change /veh CAMK2N1 (11719241_x_at) / RFU C5orf56 (11738088_a_at) / Fold change /veh C5orf56 (11738088_a_at) / RFU OLFML3 (11715873_a_at) / Fold change /veh OLFML3 (11715873_a_at) / RFU LOC100653217 /// NTM (11731650_a_at) / Fold change /veh LOC100653217 /// NTM (11731650_a_at) / RFU MAPK11 (11762145_a_at) / Fold change /veh MAPK11 (11762145_a_at) / RFU FIZ1 (11724087_x_at) / Fold change /veh FIZ1 (11724087_x_at) / RFU OASL (11726364_x_at) / Fold change /veh OASL (11726364_x_at) / RFU SOX15 (11748057_x_at) / Fold change /veh SOX15 (11748057_x_at) / RFU CD79A (11719716_a_at) / Fold change /veh CD79A (11719716_a_at) / RFU HIST1H1D (11736915_at) / Fold change /veh HIST1H1D (11736915_at) / RFU CASKIN2 (11723855_a_at) / Fold change /veh CASKIN2 (11723855_a_at) / RFU LOC730098 (11760151_x_at) / Fold change /veh LOC730098 (11760151_x_at) / RFU OR4N2 (11742367_at) / Fold change /veh OR4N2 (11742367_at) / RFU PRRT2 (11749266_a_at) / Fold change /veh PRRT2 (11749266_a_at) / RFU SNX32 (11753110_a_at) / Fold change /veh SNX32 (11753110_a_at) / RFU CDHR5 (11726645_a_at) / Fold change /veh CDHR5 (11726645_a_at) / RFU RCAN1 (11760418_a_at) / Fold change /veh RCAN1 (11760418_a_at) / RFU FAM167A (11723789_a_at) / Fold change /veh FAM167A (11723789_a_at) / RFU FAM26E (11764081_at) / Fold change /veh FAM26E (11764081_at) / RFU ISYNA1 (11749810_s_at) / Fold change /veh ISYNA1 (11749810_s_at) / RFU ACY1 (11761880_at) / Fold change /veh ACY1 (11761880_at) / RFU 11764098_at / Fold change /veh 11764098_at / RFU SAMD14 (11745864_x_at) / Fold change /veh SAMD14 (11745864_x_at) / RFU NPB (11741838_a_at) / Fold change /veh NPB (11741838_a_at) / RFU TMPRSS6 (11731388_a_at) / Fold change /veh TMPRSS6 (11731388_a_at) / RFU KRTAP10-2 (11738614_at) / Fold change /veh KRTAP10-2 (11738614_at) / RFU ARHGAP8 /// PRR5-ARHGAP8 (11727945_x_at) / Fold change /veh ARHGAP8 /// PRR5-ARHGAP8 (11727945_x_at) / RFU KRTAP5-7 /// NADSYN1 (11734609_at) / Fold change /veh KRTAP5-7 /// NADSYN1 (11734609_at) / RFU RASL12 (11751679_a_at) / Fold change /veh RASL12 (11751679_a_at) / RFU CDKN2B (11736163_a_at) / Fold change /veh CDKN2B (11736163_a_at) / RFU PRF1 (11729649_at) / Fold change /veh PRF1 (11729649_at) / RFU, ZNF638 /// ZNF638-IT1 / Fold change vs veh, ZNF638 /// ZNF638-IT1 / RFU, PANK3 / Fold change vs veh, PANK3 / RFU, SH3YL1 / Fold change vs veh, SH3YL1 / RFU, ZEB2 / Fold change vs veh, ZEB2 / RFU, NRIP1 / Fold change vs veh, NRIP1 / RFU, PTTG1IP / Fold change vs veh, PTTG1IP / RFU, CAPN2 / Fold change vs veh, CAPN2 / RFU, MED14 / Fold change vs veh, MED14 / RFU, SNORA58 / Fold change vs veh, SNORA58 / RFU, C1orf63 / Fold change vs veh, C1orf63 / RFU, LRRFIP1 / Fold change vs veh, LRRFIP1 / RFU, NDUFAF7 / Fold change vs veh, NDUFAF7 / RFU, SLC12A2 / Fold change vs veh, SLC12A2 / RFU, IBTK / Fold change vs veh, IBTK / RFU, ESF1 / Fold change vs veh, ESF1 / Fold change vs veh, TMEM50B / RFU, TAOK1 / Fold change vs veh, TAOK1 / RFU, ACBD3 / Fold change vs veh, ACBD3 / RFU, TMA16 / Fold change vs veh, TMA16 / RFU, RWDD3 / Fold change vs veh, RWDD3 / RFU, BCAT1 / Fold change vs veh, BCAT1 / RFU, EDEM3 / Fold change vs veh, EDEM3 / RFU, TMEM33 / Fold change vs veh, TMEM33 / RFU, WDR75 / Fold change vs veh, WDR75 / RFU, AHCTF1 / Fold change vs veh, AHCTF1 / RFU, TFRC / Fold change vs veh, TFRC / RFU, ZDHHC17 / Fold change vs veh, ZDHHC17 / RFU, NOM1 / Fold change vs veh, NOM1 / RFU, ARL8B / Fold change vs veh, ARL8B / RFU, ZBTB11 / Fold change vs veh, ZBTB11 / RFU, TAMM41 / Fold change vs veh, TAMM41 / RFU, KIAA1704 /// LOC100996395 / Fold change vs veh, KIAA1704 /// LOC100996395 / RFU, ING1 / Fold change vs veh, ING1 / RFU, TRMT61B / Fold change vs veh, TRMT61B / RFU, FUBP3 / Fold change vs veh, FUBP3 / RFU, TP53 / Fold change vs veh, TP53 / RFU, TNKS2 / Fold change vs veh, TNKS2 / RFU, ZFP14 / Fold change vs veh, ZFP14 / RFU, ACTR2 / Fold change vs veh, ACTR2 / RFU, PPP3R1 / Fold change vs veh, PPP3R1 / RFU, PIK3R1 / Fold change vs veh, PIK3R1 / RFU, HNRNPA1 / Fold change vs veh, HNRNPA1 / RFU, RNF170 / Fold change vs veh, RNF170 / RFU, ZNF28 / Fold change vs veh, ZNF28 / RFU, RNGTT / Fold change vs veh, RNGTT / RFU, OGT / Fold change vs veh, OGT / RFU, BRD1 / Fold change vs veh, BRD1 / RFU, MARS / Fold change vs veh, MARS / RFU, ZNF655 / Fold change vs veh, ZNF655 / RFU, FAHD1 / Fold change vs veh, FAHD1 / RFU, BDP1 / Fold change vs veh, BDP1 / RFU, LRRCC1 / Fold change vs veh, LRRCC1 / RFU, ARID1A / Fold change vs veh, ARID1A / RFU, ZNF146 / Fold change vs veh, ZNF146 / RFU, ZNF330 / Fold change vs veh, ZNF330 / RFU, GPN3 / Fold change vs veh, GPN3 / RFU, C9orf123 / Fold change vs veh, C9orf123 / RFU, N4BP2L2 / Fold change vs veh, N4BP2L2 / RFU, ARFIP1 / Fold change vs veh, ARFIP1 / RFU, FAM179B / Fold change vs veh, FAM179B / RFU, BCL10 / Fold change vs veh, BCL10 / RFU, UHRF1BP1L / Fold change vs veh, UHRF1BP1L / RFU, BET1 / Fold change vs veh, BET1 / RFU, CNOT2 / Fold change vs veh, CNOT2 / RFU, ZNF268 / Fold change vs veh, ZNF268 / Fold change vs veh, ZNF507 / RFU, DGCR2 / Fold change vs veh, DGCR2 / RFU, WDSUB1 / Fold change vs veh, WDSUB1 / Fold change vs veh, HSP90B1 /// MIR3652 / RFU, ADSS / Fold change vs veh, ADSS / RFU, GK / Fold change vs veh, GK / RFU, ZNF148 / Fold change vs veh, ZNF148 / RFU, TAF9 / Fold change vs veh, TAF9 / RFU, SLC1A5 / Fold change vs veh, SLC1A5 / RFU, SLMO2 / Fold change vs veh, SLMO2 / RFU, ABCC4 / Fold change vs veh, ABCC4 / RFU, LOC101060439 /// RAP1B / Fold change vs veh, LOC101060439 /// RAP1B / RFU, RFX7 / Fold change vs veh, RFX7 / RFU, GTPBP10 / Fold change vs veh, GTPBP10 / RFU, CNEP1R1 / Fold change vs veh, CNEP1R1 / RFU, BIVM-ERCC5 /// ERCC5 / Fold change vs veh, BIVM-ERCC5 /// ERCC5 / RFU, ILF3 / Fold change vs veh, ILF3 / RFU 11762660_at / Fold change /veh 11762660_at / RFU VCAN (11757783_s_at) / Fold change /veh VCAN (11757783_s_at) / RFU DDX43 (11728927_at) / Fold change /veh DDX43 (11728927_at) / RFU KRT8 (11758188_x_at) / Fold change /veh KRT8 (11758188_x_at) / RFU NKD1 (11759106_at) / Fold change /veh NKD1 (11759106_at) / RFU SRD5A1 (11742802_a_at) / Fold change /veh SRD5A1 (11742802_a_at) / RFU TPSAB1 /// TPSB2 (11721975_s_at) / Fold change /veh TPSAB1 /// TPSB2 (11721975_s_at) / RFU GSTM3 (11746129_a_at) / Fold change /veh GSTM3 (11746129_a_at) / RFU IL23R (11737362_x_at) / Fold change /veh IL23R (11737362_x_at) / RFU TMEM51 (11727254_a_at) / Fold change /veh TMEM51 (11727254_a_at) / RFU PIWIL2 (11732686_x_at) / Fold change /veh PIWIL2 (11732686_x_at) / RFU ORM1 (11744905_x_at) / Fold change /veh ORM1 (11744905_x_at) / RFU CCDC152 (11743942_at) / Fold change /veh CCDC152 (11743942_at) / RFU ECM1 (11717891_a_at) / Fold change /veh ECM1 (11717891_a_at) / RFU IL23R (11748794_a_at) / Fold change /veh IL23R (11748794_a_at) / RFU TNFAIP8L3 (11732012_x_at) / Fold change /veh TNFAIP8L3 (11732012_x_at) / RFU MBOAT4 (11741988_at) / Fold change /veh MBOAT4 (11741988_at) / RFU 11764193_at / Fold change /veh 11764193_at / RFU TMEM53 (11763286_at) / Fold change /veh TMEM53 (11763286_at) / RFU MAGEB2 (11727129_at) / Fold change /veh MAGEB2 (11727129_at) / RFU TMEM200A (11744735_a_at) / Fold change /veh TMEM200A (11744735_a_at) / RFU CCDC152 (11751479_a_at) / Fold change /veh CCDC152 (11751479_a_at) / RFU FAM211A (11726209_a_at) / Fold change /veh FAM211A (11726209_a_at) / RFU RGS16 (11746705_a_at) / Fold change /veh RGS16 (11746705_a_at) / RFU VCAN (11755009_s_at) / Fold change /veh VCAN (11755009_s_at) / RFU RHOB (11743442_s_at) / Fold change /veh RHOB (11743442_s_at) / RFU RGS16 (11720943_a_at) / Fold change /veh RGS16 (11720943_a_at) / RFU RGS16 (11720944_at) / Fold change /veh RGS16 (11720944_at) / RFU, VPS4B / Fold change vs veh, VPS4B / RFU, CREB1 / Fold change vs veh, CREB1 / RFU, DNAJC13 / Fold change vs veh, DNAJC13 / RFU, GNAQ / Fold change vs veh, GNAQ / RFU, CDK5R1 / Fold change vs veh, CDK5R1 / RFU, ZRANB3 / Fold change vs veh, ZRANB3 / RFU, CUL4A / Fold change vs veh, CUL4A / RFU, CCNY / Fold change vs veh, CCNY / RFU, UFL1 / Fold change vs veh, UFL1 / RFU, COG3 / Fold change vs veh, COG3 / RFU, DIAPH2 / Fold change vs veh, DIAPH2 / RFU, SKA2 / Fold change vs veh, SKA2 / RFU, AFF3 / Fold change vs veh, AFF3 / RFU, LMF1 / Fold change vs veh, LMF1 / RFU, IPO11 / Fold change vs veh, IPO11 / RFU, DFFB / Fold change vs veh, DFFB / RFU, FOXP1 / Fold change vs veh, FOXP1 / RFU, CARD8 / Fold change vs veh, CARD8 / RFU, STRN3 / Fold change vs veh, STRN3 / RFU, ADK / Fold change vs veh, ADK / RFU, RASSF2 / Fold change vs veh, RASSF2 / RFU, WIPF1 / Fold change vs veh, WIPF1 / RFU, LARP1B / Fold change vs veh, LARP1B / RFU, RASA1 / Fold change vs veh, RASA1 / RFU, RB1 / Fold change vs veh, RB1 / RFU, PPFIA1 / Fold change vs veh, PPFIA1 / RFU, MAT2A / Fold change vs veh, MAT2A / RFU, CCT5 / Fold change vs veh, CCT5 / RFU, WDR92 / Fold change vs veh, WDR92 / RFU, CUX1 / Fold change vs veh, CUX1 / RFU, TTC7A / Fold change vs veh, TTC7A / RFU, TMEM135 / Fold change vs veh, TMEM135 / RFU, DEPTOR / Fold change vs veh, DEPTOR / RFU, CPM / Fold change vs veh, CPM / RFU, DNAJB6 / Fold change vs veh, DNAJB6 / RFU, CACNA2D3 / Fold change vs veh, CACNA2D3 / RFU, DTX4 / Fold change vs veh, DTX4 / RFU, TFCP2 / Fold change vs veh, TFCP2 / RFU, GMCL1 /// GMCL1P1 / Fold change vs veh, GMCL1 /// GMCL1P1 / RFU, AEBP2 / Fold change vs veh, AEBP2 / RFU, SNHG1 /// SNORD22 /// SNORD25 /// SNORD26 /// SNORD27 /// SNORD28 /// SNORD29 /// SNORD31 / Fold change vs veh, SNHG1 /// SNORD22 /// SNORD25 /// SNORD26 /// SNORD27 /// SNORD28 /// SNORD29 /// SNORD31 / Fold change (Aza/veh), C12orf56 (ProbeSet 11735607_a_at) / Fold change (ACY-1035/veh), C12orf56 (ProbeSet 11735607_a_at) / Fold change (Aza/veh), FGFR1OP (ProbeSet 11751329_s_at) / Fold change (ACY-1035/veh), FGFR1OP (ProbeSet 11751329_s_at) / Fold change (Aza/veh), VPS36 (ProbeSet 11739960_a_at) / Fold change (ACY-1035/veh), VPS36 (ProbeSet 11739960_a_at) / RFU SYPL1 (11715823_x_at) / Fold change /veh SYPL1 (11715823_x_at) / RFU IGFBP7 (11715501_s_at) / Fold change /veh IGFBP7 (11715501_s_at) / RFU REEP3 (11722064_at) / Fold change /veh REEP3 (11722064_at) / RFU IGLL1 (11728026_x_at) / Fold change /veh IGLL1 (11728026_x_at): dose or concentration left out as unconfirmed.

With `Nc1ncn([C@@H]2O[C@H](CO)[C@@H](O)[C@H]2O)c(=O)n1` [azacitidine], the “Fold change /veh HLA-DPB1 (11760878_x_at)” value turned out to be 0.86.

(Values after publication PMC5218480 (PLoS ONE, 2017).)
